target: Tyrosine-protein kinase BTK (Homo sapiens, UniProt Q06187); experiment: Biochemical Btk Assay: A generalized procedure for a standard biochemical Btk, Kinase Assay that can be used to test Formula I compounds is as follows. A master mix minus Btk enzyme is prepared containing 1x Cell Signaling kinase buffer (25 mM Tris-HCl, pH 7.5, 5 mM beta-glycerophosphate, 2 mM dithiothreitol, 0.1 mM Na3VO4, 10 mM MgCl2), 0.5 uM Promega PTK Biotinylated peptide substrate 2, and 0.01% BSA. A master mix plus Btk enzyme is prepared containing 1x Cell Signaling kinase buffer, 0.5 uM PTK Biotinylated peptide substrate 2, 0.01% BSA, and 100 ng/well (0.06 mU/well) Btk enzyme. Btk enzyme is prepared as follows: full length human wildtype Btk (accession number NM-000061) with a C-terminal V5 and 6xHis tag was subcloned into pFastBac vector (Invitrogen/Life Technologies) for making baculovirus carrying this epitope-tagged Btk.
Sequence (Q06187 whole entry): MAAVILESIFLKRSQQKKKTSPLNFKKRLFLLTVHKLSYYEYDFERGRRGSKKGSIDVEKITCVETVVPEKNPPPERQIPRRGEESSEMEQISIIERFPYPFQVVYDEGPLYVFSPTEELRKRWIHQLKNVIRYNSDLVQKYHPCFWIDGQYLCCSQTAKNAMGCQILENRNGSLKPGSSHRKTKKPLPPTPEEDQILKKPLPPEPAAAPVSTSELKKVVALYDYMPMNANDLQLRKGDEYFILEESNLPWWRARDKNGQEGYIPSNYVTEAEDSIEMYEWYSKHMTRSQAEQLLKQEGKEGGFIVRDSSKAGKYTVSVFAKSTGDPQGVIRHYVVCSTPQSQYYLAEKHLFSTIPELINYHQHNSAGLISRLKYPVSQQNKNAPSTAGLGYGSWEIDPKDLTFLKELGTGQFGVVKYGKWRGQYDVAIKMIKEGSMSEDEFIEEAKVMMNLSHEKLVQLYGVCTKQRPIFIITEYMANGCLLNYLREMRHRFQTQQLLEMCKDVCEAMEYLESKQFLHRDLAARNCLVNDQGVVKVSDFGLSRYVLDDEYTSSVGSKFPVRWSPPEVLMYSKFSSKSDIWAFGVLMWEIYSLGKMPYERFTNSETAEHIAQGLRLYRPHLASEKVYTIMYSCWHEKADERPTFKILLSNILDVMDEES

With `C=CC(=O)N[C@H]1CCCN(c2cccc(Nc3cc(-c4ccnc(N5CCn6c(cc7c6CC(C)(C)C7)C5=O)c4CO)cn(C)c3=O)n2)C1` as the molecule, how does the Ki read?
The Ki was 0.888 nM.

For `C=C(C#N)C(=O)NCCOc1cccc(Nc2cc(-c3ccnc(N4CCn5c(cc6c5CC(C)(C)C6)C4=O)c3CO)cn(C)c2=O)n1`, which Ki is on record?
Its Ki is 1.7 nM.

`C=CC(=O)NCCNc1cccc(Nc2cc(-c3ccnc(N4CCn5c(cc6c5CC(C)(C)C6)C4=O)c3CO)cn(C)c2=O)n1` was tested. Which Ki did it give?
The Ki was 4.33 nM.

Which Ki does the source give for `C=CC(=O)NCCN(C)c1cccc(Nc2cc(-c3ccnc(N4CCn5c(cc6c5CC(C)(C)C6)C4=O)c3CO)cn(C)c2=O)n1` here?
Its Ki is 0.683 nM.

With `CC#CC(=O)NCCOc1cccc(Nc2cc(-c3ccnc(N4CCn5c(cc6c5CC(C)(C)C6)C4=O)c3CO)cn(C)c2=O)n1` as the molecule, how does the Ki read?
Its Ki is 2.37 nM.
